Measured values reported in PMC9631409 (ACS Omega, 2022).
pKd: −log10 of the molar value.

Target: T1, FmtA^Δ80 (Staphylococcus aureus, UniProt O50608)
T1 sequence (O50608 81-397): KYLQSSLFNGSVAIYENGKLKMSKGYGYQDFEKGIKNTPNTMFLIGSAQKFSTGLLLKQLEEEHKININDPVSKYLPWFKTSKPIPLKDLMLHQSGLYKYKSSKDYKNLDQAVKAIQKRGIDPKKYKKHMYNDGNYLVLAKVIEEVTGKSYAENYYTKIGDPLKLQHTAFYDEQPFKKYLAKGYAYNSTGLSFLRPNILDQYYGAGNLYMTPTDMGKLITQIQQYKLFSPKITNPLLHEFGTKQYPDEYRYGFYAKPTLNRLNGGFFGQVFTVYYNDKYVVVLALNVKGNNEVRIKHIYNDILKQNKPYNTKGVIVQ
Test: isothermal titration calorimetry, one-site model
Assay type: binding

Q: With `[H]/N=C(/N)N[C@H]1[C@H](O)[C@@H](O)[C@H](O[C@@H]2O[C@@H](C)[C@](O)(C=O)[C@H]2O[C@@H]2O[C@@H](CO)[C@H](O)[C@@H](O)[C@@H]2NC)[C@@H](N/C(N)=N\[H])[C@@H]1O` [streptomycin] as the compound, how does the pKd read?
A: Its pKd is 4.95.

Q: `NC[C@@H]1O[C@H](O[C@H]2[C@@H](O)[C@H](O[C@@H]3[C@@H](O)[C@H](N)C[C@H](N)[C@H]3O[C@H]3O[C@H](CO)[C@@H](O)[C@H](O)[C@H]3N)O[C@@H]2CO)[C@H](N)[C@@H](O)[C@@H]1O` [paromomycin] was tested. Which pKd did it give?
A: Its pKd is 5.07.

Q: How did the pKd turn out when `NC[C@H]1O[C@H](O[C@H]2[C@H](O)[C@@H](O[C@H]3O[C@H](CO)[C@@H](O)[C@H](N)[C@H]3O)[C@H](N)C[C@@H]2N)[C@H](N)C[C@@H]1O` [tobramycin] was run?
A: The pKd was 4.59.

Q: How did the pKd turn out when `CO/N=C1\CN(c2nc3c(cc2F)c(=O)c(C(=O)O)cn3C2CC2)CC1CN` (stereo not shown) [gemifloxacin] was run?
A: The pKd was 5.77.
